Earlier results, collected in US20200253884A1, “NANOBIOLOGIC COMPOSITIONS FOR PROMOTING TRAINED IMMUNITY” (ICAHN SCHOOL OF MEDICINE AT MOUNT SINAI, priority 2017, published 2020).

Key:
[1] = test system: diffuse large B-cell lymphoma (DLBCL); conditions: preliminary results
multiple cancers = conditions: in vivo

| Substance | subjects progression-free at the end of the follow-up period ([1]; control group 47%) [%] | subjects alive ([1]; control group 62%) [%] | clinical activity (multiple cancers) | safety profile (multiple cancers) |
| --- | --- | --- | --- | --- |
| CT-011: humanized IgG1 monoclonal antibody against PD-1 | 70 | 82 | – | – |
| Medi 4736: anti-PD-L1 antibody | – | – | durable clinical activity | acceptable safety profile |
